Data: PubChem BioAssay AID328 (DTP/NCI, 2004)
Several values for one entry are separate records, joined by “and”; a condition that tells them apart may be missing. Identical values can stand only once. Toxic doses and inconclusive results are not listed. The calls were made as follows: active = survival T/C of 150% or more; inactive = T/C below 125% in these data.

System: BDF1 mice, P388 leukemia ip, median survival T/C
Assay: NCI In Vivo Anticancer Drug Screen. Data for tumor model P388 Leukemia (intraperitoneal) in B6D2F1 (BDF1) mice
Conditions: endpoint: median survival time, higher = longer survival
Outline: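 Mice carrying the transplantable tumour receive compound or vehicle. Survival is followed in each arm, and the treated measure is divided by the vehicle measure.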

[1] = dose: 50.0 mg/kg/injection, schedule: Q01DX009 (ip), vehicle: saline with Tween-80
[2] = dose: 100.0 mg/kg/injection, schedule: Q01DX009 (ip), vehicle: saline with Tween-80
[3] = dose: 200.0 mg/kg/injection, schedule: Q01DX009 (ip), vehicle: saline with Tween-80
[4] = dose: 400.0 mg/kg/injection, schedule: Q01DX009 (ip), vehicle: saline with Tween-80
[5] = dose: 25.0 mg/kg/injection, schedule: Q04DX003 (ip), vehicle: saline with Tween-80
[6] = dose: 100.0 mg/kg/injection, schedule: Q04DX003 (ip), vehicle: saline with Tween-80
[7] = dose: 100.0 mg/kg/injection, schedule: Q01DX009 (ip), vehicle: Klucel (hydroxypropylcellulose) (HPC)
[8] = dose: 100.0 mg/kg/injection, schedule: Q04DX003 (ip), vehicle: Klucel (hydroxypropylcellulose) (HPC)
[9] = dose: 100.0 mg/kg/injection, schedule: Q01DX009 (ip), vehicle: saline
[10] = dose: 25.0 mg/kg/injection, schedule: Q01DX009 (ip), vehicle: saline with Tween-80
[11] = dose: 200.0 mg/kg/injection, schedule: Q04DX003 (ip), vehicle: saline with Tween-80
[12] = dose: 400.0 mg/kg/injection, schedule: Q04DX003 (ip), vehicle: saline with Tween-80
[13] = dose: 200.0 mg/kg/injection, schedule: Q04DX003 (ip), vehicle: Klucel (hydroxypropylcellulose) (HPC)
[14] = dose: 400.0 mg/kg/injection, schedule: Q04DX003 (ip), vehicle: Klucel (hydroxypropylcellulose) (HPC)
[15] = dose: 200.0 mg/kg/injection, schedule: Q04DX002 (ip), vehicle: saline with Tween-80
[16] = dose: 400.0 mg/kg/injection, schedule: Q04DX002 (ip), vehicle: saline with Tween-80
[17] = dose: 200.0 mg/kg/injection, schedule: Q01DX009 (ip), vehicle: Klucel (hydroxypropylcellulose) (HPC)
[18] = dose: 25.0 mg/kg/injection, schedule: Q01DX009 (ip), vehicle: saline
[19] = dose: 50.0 mg/kg/injection, schedule: Q01DX009 (ip), vehicle: saline

Measured: T/C

Cc1ccc(NC(=S)NCCc2ccccn2)cc1C
inactive: [1] 101 % of control and 124 % of control | [2] 100 % of control and 102 % of control | [3] 104 % of control and 106 % of control | [4] 100 % of control

O=c1oc(-c2cc([N+](=O)[O-])ccc2Cl)nc2ccccc12
inactive: [5] 95 % of control | [6] 95 % of control

CCOC(=O)C(CCC(=O)OC)C1=NC(C)(C)CC(C)O1 (stereo not given)
inactive: dose: 50.0 mg/kg/injection, schedule: Q01DX001 (ip), vehicle: saline sonified 104 % of control | dose: 100.0 mg/kg/injection, schedule: Q01DX001 (ip), vehicle: saline sonified 100 % of control | dose: 200.0 mg/kg/injection, schedule: Q01DX001 (ip), vehicle: saline sonified 100 % of control

BrCc1c(CBr)c(CBr)c(CBr)c(CBr)c1CBr
inactive: dose: 25.0 mg/kg/injection, schedule: Q01DX009 (ip), vehicle: Klucel (hydroxypropylcellulose) (HPC) 95 % of control | dose: 25.0 mg/kg/injection, schedule: Q04DX003 (ip), vehicle: Klucel (hydroxypropylcellulose) (HPC) 109 % of control | dose: 50.0 mg/kg/injection, schedule: Q01DX009 (ip), vehicle: Klucel (hydroxypropylcellulose) (HPC) 100 % of control | dose: 50.0 mg/kg/injection, schedule: Q04DX003 (ip), vehicle: Klucel (hydroxypropylcellulose) (HPC) 100 % of control | [7] 109 % of control | [8] 95 % of control

O=C(CN1CCOCC1)N1CCOCC1
inactive: [9] 90 % of control | dose: 100.0 mg/kg/injection, schedule: Q04DX003 (ip), vehicle: saline 100 % of control | dose: 200.0 mg/kg/injection, schedule: Q01DX009 (ip), vehicle: saline 100 % of control | dose: 200.0 mg/kg/injection, schedule: Q04DX003 (ip), vehicle: saline 95 % of control | dose: 400.0 mg/kg/injection, schedule: Q01DX009 (ip), vehicle: saline 100 % of control | dose: 400.0 mg/kg/injection, schedule: Q04DX003 (ip), vehicle: saline 104 % of control

COC(=O)CCCNC1CCCCC1
inactive: dose: 50.0 mg/kg/injection, schedule: Q01DX001 (ip), vehicle: saline 107 % of control | dose: 100.0 mg/kg/injection, schedule: Q01DX001 (ip), vehicle: saline 114 % of control | dose: 200.0 mg/kg/injection, schedule: Q01DX001 (ip), vehicle: saline 102 % of control

CCCCCCNP(=O)(N1CC1)N1CC1
active: dose: 16.5 mg/kg/injection, schedule: Q04DX003 (ip), vehicle: saline with Tween-80 168 % of control | [5] 227 % of control | dose: 37.5 mg/kg/injection, schedule: Q04DX003 (ip), vehicle: saline with Tween-80 272 % of control

COc1cc(-c2ccc(O)cc2)c(OC)c(O)c1-c1ccc(O)c(O)c1
inactive: dose: 1.25 mg/kg/injection, schedule: Q01DX009 (ip), vehicle: Klucel (hydroxypropylcellulose) (HPC) 97 % of control | dose: 2.5 mg/kg/injection, schedule: Q01DX009 (ip), vehicle: Klucel (hydroxypropylcellulose) (HPC) 96 % of control | dose: 5.0 mg/kg/injection, schedule: Q01DX009 (ip), vehicle: Klucel (hydroxypropylcellulose) (HPC) 98 % of control | dose: 10.0 mg/kg/injection, schedule: Q01DX009 (ip), vehicle: Klucel (hydroxypropylcellulose) (HPC) 95 % of control | dose: 20.0 mg/kg/injection, schedule: Q01DX009 (ip), vehicle: Klucel (hydroxypropylcellulose) (HPC) 97 % of control | dose: 40.0 mg/kg/injection, schedule: Q01DX009 (ip), vehicle: Klucel (hydroxypropylcellulose) (HPC) 97 % of control

O=C(O)CCSc1ncnc2nc[nH]c12
inactive: dose: 12.5 mg/kg/injection, schedule: Q01DX009 (ip), vehicle: saline with Tween-80 104 % of control | [10] 109 % of control | [1] 109 % of control | [6] 100 % of control | [11] 113 % of control | [12] 104 % of control

C=CCN1CSC(=S)N(CC=C)C1
inactive: [10] 100 % of control | [1] 87 % of control

CN(C)c1cc(Br)c(C=O)cc1[N+](=O)[O-]
inactive: [8] 95 % of control | [13] 95 % of control | [14] 100 % of control

COc1cccc2c1C(=O)c1c(O)c3c(c(O)c1C2=O)C[C@@](O)(C(C)=O)C[C@@H]3OC1CC(N(Cc2ccccc2)Cc2ccccc2)C(O)C(C)O1 (stereo not given in full)
inactive: dose: 150.0 mg/kg/injection, schedule: Q04DX003 (ip), vehicle: water 100 % of control | dose: 300.0 mg/kg/injection, schedule: Q04DX003 (ip), vehicle: water 102 % of control
active: dose: 37.5 mg/kg/injection, schedule: Q04DX003 (ip), vehicle: water 227 % of control

CC(CCC(=O)NC12CC3CC(CC(C3)C1)C2)C1CCC2C3C(OC=O)CC4CC(OC=O)CCC4(C)C3CC(OC=O)C12C (stereo not given)
inactive: dose: 12.5 mg/kg/injection, schedule: Q04DX002 (ip), vehicle: saline with Tween-80 98 % of control | dose: 25.0 mg/kg/injection, schedule: Q04DX002 (ip), vehicle: saline with Tween-80 100 % of control | dose: 50.0 mg/kg/injection, schedule: Q04DX002 (ip), vehicle: saline with Tween-80 100 % of control | [15] 88 % of control | [16] 98 % of control

CC(CCCc1ccccc1)(C(=O)O)C(=O)O
inactive: dose: 100.0 mg/kg/injection, schedule: Q04DX002 (ip), vehicle: saline with Tween-80 96 % of control | [15] 98 % of control | [16] 102 % of control

C=C(C)c1cc2c(cc1O)OCC2C (stereo not given)
inactive: [8] 92 % of control | dose: 300.0 mg/kg/injection, schedule: Q01DX009 (ip), vehicle: Klucel (hydroxypropylcellulose) (HPC) 90 % of control | [14] 92 % of control

CCCCC(CC)COC(=O)/C=C/C(=O)OCC(CC)CCCC (stereo not given)
inactive: [7] 86 % of control | [17] 86 % of control

CCOC(=O)CCC(C(=O)OCC)C(=O)OCC
inactive: [2] 107 % of control | [6] 91 % of control | [3] 100 % of control | [11] 100 % of control | [4] 92 % of control | [12] 95 % of control

O=C1c2ccccc2C(=O)N1CC(O)COc1ccccc1 (stereo not given)
inactive: dose: 75.0 mg/kg/injection, schedule: Q01DX001 (ip), vehicle: saline sonified 104 % of control | dose: 150.0 mg/kg/injection, schedule: Q01DX001 (ip), vehicle: saline sonified 122 % of control | dose: 300.0 mg/kg/injection, schedule: Q01DX001 (ip), vehicle: saline sonified 104 % of control

COC(=O)Nc1nc2ccc(Br)cc2[nH]1
inactive: [7] 104 % of control | [8] 109 % of control | [17] 112 % of control | [13] 109 % of control | dose: 400.0 mg/kg/injection, schedule: Q01DX009 (ip), vehicle: Klucel (hydroxypropylcellulose) (HPC) 116 % of control | [14] 113 % of control

CCN(CC)CCNc1ccc(C)c2sc3ccc(O)cc3c(=O)c12
active: [1] 183 % of control
inactive: [2] 94 % of control

O=[N+]([O-])c1ccc(/C=C/c2ncccn2)o1
inactive: [8] 100 % of control | [13] 100 % of control | [14] 100 % of control

CCCCn1cnc2c(SC)nc(N)nc21
inactive: dose: 66.0 mg/kg/injection, schedule: Q01DX009 (ip), vehicle: Klucel (hydroxypropylcellulose) (HPC) 95 % of control | [7] 104 % of control | [8] 100 % of control | dose: 150.0 mg/kg/injection, schedule: Q01DX009 (ip), vehicle: Klucel (hydroxypropylcellulose) (HPC) 100 % of control | [13] 90 % of control | [14] 90 % of control

C#CCOC1CCCCO1 (stereo not given)
inactive: [18] 90 % of control | [19] 100 % of control | [9] 100 % of control

CC(N)Cc1ccc(N(C)C)cc1F (stereo not given)
inactive: [10] 96 % of control | [18] 103 % of control | [1] 96 % of control | [19] 98 % of control and 107 % of control | [2] 107 % of control | [9] 96 % of control

O=S(c1ccccc1)c1c(Cl)c(Cl)nc(Cl)c1Cl (stereo not given)
inactive: dose: 2.75 mg/kg/injection, schedule: Q01DX009 (ip), vehicle: saline with Tween-80 109 % of control | dose: 5.5 mg/kg/injection, schedule: Q01DX009 (ip), vehicle: saline with Tween-80 118 % of control | dose: 11.0 mg/kg/injection, schedule: Q01DX009 (ip), vehicle: saline with Tween-80 113 % of control | [5] 113 % of control | dose: 50.0 mg/kg/injection, schedule: Q04DX003 (ip), vehicle: saline with Tween-80 121 % of control
